“Also recorded” adds a separate entry of the source.
Assays:
[1] = Ionization potential by electron photoemission in air; type: physicochemical; conditions: CTM layer without binder; error ±0.03 eV
Protocol: Samples for ionization potential (Ip) measurements were prepared by dissolving compounds (B), (C), (E), (F), (G), and (H) and Comparative Example A separately in tetrahydrofuran. Each solution was hand-coated on an aluminized polyester substrate that was precision coated with a methylcellulose-based adhesive sub-layer to form a charge transport material (CTM) layer. The role of this sub-layer was to improve adhesion of the CTM layer, to retard crystallization of CTM, and to eliminate the electron photoemission from the Al layer through possible CTM layer defects. No photoemission was detected from the Al layer through the sub-layer at illumination with up to 6.4 eV quantum energy light. In addition, the adhesive sub-layer was conductive enough to avoid charge accumulation on it during measurement. The thickness of both the sub-layer and CTM layer was about 0.4 µm. No binder material was used in the preparation of the samples for Ip measurements. In most cases, the thin CTM layers were in a meta-stable amorphous phase, delaying crystallization for several hours, so that the measurement of the samples was possible.
The ionization potential was measured by the electron photoemission in an air method similar to that described in "Ionization Potential of Organic Pigment Film by Atmospheric Photoelectron Emission Analysis", Electrophotography, 28, No. 4, p. 364. (1989) by E. Miyamoto, Y. Yamaguchi, and M. Yokoyama, which is hereby incorporated by reference. The samples were illuminated with monochromatic light from a quartz monochromator with a deuterium lamp source. The power of the incident light beam was 2-5×10^-8 W. The negative voltage of -300 V was supplied to the sample substrate. The counter-electrode with the 4.5×15 mm^2 slit for illumination was placed at 8 mm distance from the sample surface. The counter-electrode was connected to the input of the BK2-16 type electrometer, working in the open input regime, for the photocurrent measurement. A photocurrent of 10^-15-10^-12 amp was flowed in the circuit under illumination. The photocurrent, I, was strongly dependent on the incident light photon energy hν. The I^0.5=f(hν) dependence was plotted. Usually the dependence of the square root of photocurrent on incident light quantum energy is well described by linear relationship near the threshold [see references "Ionization Potential of Organic Pigment Film by Atmospheric Photoelectron Emission Analysis", Electrophotography, 28, No. 4, p. 364. (1989) by E. Miyamoto, Y. Yamaguchi, and M. Yokoyama; and "Photoemission in Solids", Topics in Applied Physics, 26, 1-103. (1978) by M. Cordona and L. Ley]. The linear part of this dependence was extrapolated to the hν axis, and Ip value was determined as the photon energy at the interception point.

[2] = Thermal transitions by differential scanning calorimetry (glass transition temperature); type: physicochemical; conditions: DSC; for Tg with 50% PCZ: mixture with Polycarbonate Z binder; for Tg without binder: neat sample
Protocol: Thermal transition data for various charge transport compounds was collected using a TA Instruments Model 2929 Differential Scanning Calorimeter (New Castle, DE) equipped with a DSC cooling system (-70°C minimum temperature limit), and dry helium and nitrogen exchange gases. The calorimeter ran on a Thermal Analyst 2100 workstation with version 8.10B software. An empty aluminum pall was used as the reference.
Samples were tested both neat and as a mixture with Polycarbonate Z ("PCZ"). The neat samples were prepared by placing 4.0 to 8.0 mg of neat charge transport material into an aluminum sample pan and crimping the upper lid to produce a hermetically sealed sample for DSC testing. The results were normalized on a unit mass basis.
The Polycarbonate Z-mixed samples were prepared by filling the bottom portion of the aluminum sample pan with a 15-20% solid solution of the charge transport material in Polycarbonate Z, followed by air-drying overnight. Each air-dried sample was then placed in a convection oven at 50-55°C for 24-48 hours to fully remove the solvent, after which the upper sample lid was crimped on to produce a sealed sample for DSC testing. Each sample size was in the range of 7.0-15.0 mg. The results were normalized on a unit mass basis.
Each sample was subjected to the following protocol to evaluate its thermal transition behavior: • 1. Equilibrate at 0°C (Default--Nitrogen Heat Exchange Gas); • 2. Isothermal for 5 min.; • 3. External Event: Nitrogen Heat Exchange Gas; • 4. Ramp 10.0°C/min to a temperature 30°C above the melting point of the charge transport material; • 5. External Event: Helium Heat Exchange Gas; • 6. Isothermal for 5 min.; • 7. Ramp 10.0°C/min to 0°C; • 8. External Event: Nitrogen Heat Exchange Gas; • 9. Isothermal for 5 min.; • 10. Ramp 10.0°C/min to a temperature 40°C above the melting point of the charge transport material; • 11. External Event: Helium Heat Exchange Gas; • 12. Isothermal for 5 min.; • 13. Ramp 10.0°C/min to 0°C; • 14. External Event: Nitrogen Heat Exchange Gas; • 15. Isothermal for 5 min; • 16. Ramp 10.0°C/min to 275°C.
The first cycle (steps 1-7) is used to (a) remove the thermal history of the sample, (b) obtain the melting transition for crystalline charge transport materials, and (c) obtain a homogeneous charge transport material/Polycarbonate Z mixture in the event the charge transport material is crystallized during sample preparation. A homogeneous mixture can be obtained as long as the charge transport material (molten or casted) is miscible with the Polycarbonate-Z.
The second cycle (steps 8-13) is used to identify the glass transition temperature and the recrystallization or melting transitions of charge transport materials.
The third cycle (steps 14-16) is used to report the final thermal transitions.
All temperatures are reported in °C. The abbreviation "CTM" indicates charge transport compounds. The abbreviation "PCZ" indicates the Polycarbonate Z binder.

[3] = Solubility testing in tetrahydrofuran at room temperature; conditions: tetrahydrofuran as solvent
Protocol: Solubility testing was performed for individual charge transport compounds at room temperature using tetrahydrofuran as a solvent. The solubility was determined as the percent solids of saturated solution. In general, it is desirable to maximize the solubility value.

Row | Compound | lp (ionization potential) [1] | Tg with 50% PCZ [2] | Tg without binder [2] | Solubility [3]
1 | CCn1c2ccccc2c2cc(C=NN(CCCCCCCCCCN(N=Cc3ccc4c(c3)c3ccccc3n4CC)c3ccccc3)c3ccccc3)ccc21 [B] | 5.44 eV | 83.7 °C | 46 °C | –
2 | CCn1c2ccccc2c2cc(C=NN(CCCCCN(N=Cc3ccc4c(c3)c3ccccc3n4CC)c3ccccc3)c3ccccc3)ccc21 [C] | 5.34 eV | 102.5 °C | 84.4 °C | –
3 | CCn1c2ccccc2c2cc(C=NN(CCCCN(N=Cc3ccc4c(c3)c3ccccc3n4CC)c3ccccc3)c3ccccc3)ccc21 [D] | – | – | 79.1 °C | –
4 | CCCCCCCn1c2ccccc2c2cc(C=NN(CCCCCCCCCCN(N=Cc3ccc4c(c3)c3ccccc3n4CCCCCCC)c3ccccc3)c3ccccc3)ccc21 [E] | 5.38 eV | 56.9 °C | 29.3 °C | –
5 | CCCCCCCn1c2ccccc2c2cc(C=NN(CCCCCN(N=Cc3ccc4c(c3)c3ccccc3n4CCCCCCC)c3ccccc3)c3ccccc3)ccc21 [F] | 5.23 eV | 78.3 °C | 44.5 °C | –
6 | CCCCn1c2ccccc2c2cc(/C=N/N(CCCCCCN(/N=C/c3ccc4c(c3)c3ccccc3n4CCCC)c3ccccc3)c3ccccc3)ccc21 [H] | 5.35, layer with crystal inclusions eV | – | – | limited solubility; also recorded: Insoluble

Source: patent EP1202120A2, “Charge transport compound, elctrophotographic organophotoreceptor comprising the same, and electrographic imaging apparatus and method” (SAMSUNG ELECTRONICS CO., LTD., priority 2000, dated 2002)
